Assays:
[1] = tested on: Methamphetamine induced hyperactivity; experiment: Antagonism of Methamphetamine induced hyperactivity in rats; type: in vivo, Male Long-Evans black hooded rats; conditions: one hour prior to Methamphetamine 1 mg./kg. intraperitoneal; for ED50: Rattus norvegicus, oral, activity counts at one and two hour intervals, read with sign (+)/(-); for potentiation (+) or antagonism (-) of Methamphetamine: oral 5, 20 and 80 mg./kg., sign printed beside the oral ED50
Description: Effectiveness of Drug Compound on Inhibiting Methamphetamine Antagonism in Rats
Male Long-Evans black hooded rats, weighing between 100 and 150 grams, were administered the test drugs at oral doses of 5, 20 and 80 mg./kg. one hour prior to the administration of Methamphetamine at an intraperitoneal dose of 1 mg./kg. Three animals were tested at each dose level. […] Antagonism of Methamphetamine induced hyperactivity was recorded as digital counts received from the photocells at one and two hour intervals. Placebo controls received a volume dose of the 0.5 carboxymethylcellulose vehicle. The data were evaluated by a one-way analysis of variance computer program.
In the results, a (+) indicates a potentiation of Metamphetamine and a (-) is antagonism of Metamphetamine.

[2] = tested on: brain homovanillic acid (HVA); experiment: Effect of Drug Compounds on Brain Level of Homovanillic Acid (HVA); type: in vivo, male Long Evans rats; conditions: brain HVA as ratio to control group (control 1.0); 0.15 mmoles/kg intraperitoneally; brains minus cerebella two or three hours later; ratios greater than 1.6 of practical significance
Description: Effect of Drug Compounds on Brain Level of Homovanillic Acid (HVA)
In testing for the effectiveness of the present drug compounds on the brain level of homovanillic acid (HVA), the drugs were administered intraperitoneally to male Long Evans rats (Simonsen) usually as aqueous solutions but in certain cases as suspensions in 0.5% methocel in 0.9% saline. The standard testing dose was 0.15 mmoles/kg body weight. The test and control groups consisted of 3-5 and 5 animals, respectively. The analyses were performed on brains (minus cerebella) removed two or three hours later. In the analyses, standard extraction and fluorimetric methods were used.

Structure (SMILES)	ED50 [1] [mg/kg]	potentiation (+) or antagonism (-) of Methamphetamine [1]	HVA Ratio [2]
Clc1ccc2c(c1)N=C(N1CCCN(C3CC3)CC1)c1ccccc1N2 [IX, 8-Chloro-11-(4-cyclopropyl-1-homopiperazinyl)-5H-dibenzo[b,e][1,4]diazepine]	5	+	0.9
Clc1ccc2c(c1)N=C(N1CCN(CC3CC3)CC1)c1ccccc1N2 [VI, 8-Chloro-11-(4-cyclopropylmethyl-piperazinyl)-5H-dibenzo[b,e][1,4]diazepine]	80	+	3.4
Clc1ccc2c(c1)N=C(N1CCN(C3CC3)CC1)c1ccccc1N2 [VII, 8-Chloro-11-(4-cyclopropyl-1-piperazinyl)-5H-dibenzo[b,e][1,4]diazepine]	60	-	1.1
C#CCN1CCN(C2=Nc3cc(Cl)ccc3Nc3ccccc32)CC1 [VIII, 8-Chloro-11-(4-propargyl-1-piperazinyl)-5H-dibenzo[b,e][1,4]diazepine]	5	+	0.9
CN1CCCN(C2=Nc3cc(Cl)ccc3Nc3ccccc32)CC1 [X, 8-Chloro-11-(4-methyl-1-homopiperazinyl)-5H-dibenzo[b,e][1,4]diazepine]	9	+	1.0
O=CN1CCCN(C2=Nc3cc(Cl)ccc3Nc3ccccc32)CC1 [XI, 8-Chloro-11-(4-formyl-1-homopiperazinyl)-5H-dibenzo[b,e][1,4]diazepine]	80	+	1.0
Clc1ccc2c(c1)N=C(N1CCCN(CC3CC3)CC1)c1ccccc1N2 [XII, 8-Chloro-11-(4-cyclopropylmethyl-1-homopiperazine)-5H-dibenzo[b,e][1,4]diazepine]	80	+	0.9

Source: patent US4191760A, “Dibenzodiazepines” (Abbott Laboratories, priority 1978, dated 1980)
